Assay results reported in article PMC8621172, “Manipulating Estrogenic/Anti-Estrogenic Activity of Triphenylethylenes towards Development of Novel Anti-Neoplastic SERMs” (International Journal of Molecular Sciences, 2021).

What follows are compounds tested on Hs578T (assay: NCI five-dose assay, TNBC cell line Hs578T). Conditions: not given.
Type: cell-based, human
Protocol: All compounds were subjected to the NCI in vitro disease-oriented human cells screening panel assay. The human tumor cell lines of the cancer-screening panel are grown in RPMI 1640 medium containing 5% fetal bovine serum and 2 mM L-glutamine. For a typical screening experiment, cells are inoculated into 96-well microtiter plates in 100 μL at plating densities ranging from 5000 to 40,000 cells/well depending on the doubling time of individual cell lines. After cell inoculation, the microtiter plates are incubated at 37 °C, 5% CO2, 95% air, and 100% relative humidity for 24 h prior to the addition of experimental drugs. After 24 h, two plates of each cell line are fixed in situ with TCA to represent a measurement of the cell population for each cell line at the time of drug addition. Experimental drugs are solubilized in dimethyl sulfoxide at 400-fold the desired final maximum test concentration and stored frozen prior to use. At the time of drug addition, an aliquot of frozen concentrate is thawed and diluted to twice the desired final maximum test concentration with complete medium containing 50 μg/mL gentamicin. Additional four, 10-fold, or ½ log serial dilutions are made to provide a total of five drug concentrations plus control. Aliquots of 100 μL of these different drug dilutions are added to the appropriate microtiter wells already containing 100 μL of medium, resulting in the required final drug concentrations. Following drug addition, the plates are incubated for an additional 48 h at 37 °C, 5% CO2, 95% air, and 100% relative humidity. For adherent cells, the assay is terminated by the addition of cold TCA. Cells are fixed in situ by the gentle addition of 50 μL of cold 50% (w/v) TCA (final concentration, 10% TCA) and incubated for 60 min at 4 °C. […] Bound stain is subsequently solubilized with a 10 mM trizma base, and the absorbance is read on an automated plate reader at a wavelength of 515 nm. […] Three response parameters (GI50, TGI, and LC50) were calculated for each cell line.
With `COc1ccc(C(C)=C(c2ccc(Cl)cc2)c2ccc(OCCN3CCCCC3)cc2)cc1F` [Compound 17, E/Z-1-(2-{4-[1-(4-Chlorophenyl)-2-(3-fluoro-4-methoxyphenyl)-propenyl]-phenoxy}-ethyl)-piperidine] the “anti-proliferative activity compared to TAM” value was “more potent than TAM”. For `COc1ccc(C(C)=C(c2ccc(Cl)cc2)c2ccc(OCCN3CCCCCC3)cc2)cc1F` [Compound 19, E/Z-1-(2-{4-[1-(4-Chlorophenyl)-2-(3-fluoro-4-methoxyphenyl)-propenyl]-phenoxy}-ethyl)-azepane], the “anti-proliferative activity compared to TAM” value was “more potent than TAM”. `CCN(CC)CCOc1ccc(C(=C(C)c2ccc(F)c(OC)c2)c2ccc(Cl)cc2)cc1` [Compound 28, E/Z-(2-{4-[1-(4-Chlorophenyl)-2-(4-fluoro-3-methoxyphenyl)-propenyl]-phenoxy}-ethyl)-diethyl-amine] was tested, and the “anti-proliferative activity compared to TAM” value was “more potent than TAM”.

What follows are compounds tested against T1, human ERα (Homo sapiens, UniProt P03372) (assay: Yeast estrogen screen (YES) assay, antagonistic activity (β-galactosidase reporter)). Conditions: compounds at 1 µM in presence of 0.5 nM/1 nM E2 (E2 set as 1); triplicates.
T1 construct: host or cells: Saccharomyces cerevisiae
T1 sequence (P03372 1-595): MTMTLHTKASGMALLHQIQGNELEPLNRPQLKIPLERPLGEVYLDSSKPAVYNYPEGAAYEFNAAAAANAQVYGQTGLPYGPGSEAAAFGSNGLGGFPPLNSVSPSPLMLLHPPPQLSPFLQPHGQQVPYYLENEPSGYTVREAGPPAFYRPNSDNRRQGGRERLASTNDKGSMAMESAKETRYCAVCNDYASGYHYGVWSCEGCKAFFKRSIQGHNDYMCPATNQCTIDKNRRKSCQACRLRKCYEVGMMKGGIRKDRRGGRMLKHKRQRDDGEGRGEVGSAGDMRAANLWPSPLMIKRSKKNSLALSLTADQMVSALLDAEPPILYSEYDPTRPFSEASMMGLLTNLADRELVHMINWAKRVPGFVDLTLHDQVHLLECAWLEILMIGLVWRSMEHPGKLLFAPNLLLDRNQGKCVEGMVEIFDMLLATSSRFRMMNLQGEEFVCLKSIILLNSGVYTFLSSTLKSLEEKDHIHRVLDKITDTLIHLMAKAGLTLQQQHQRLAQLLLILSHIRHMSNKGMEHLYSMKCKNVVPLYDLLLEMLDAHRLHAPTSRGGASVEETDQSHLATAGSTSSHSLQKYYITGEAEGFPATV
Type: cell-based, yeast (Saccharomyces cerevisiae)
Protocol: All synthesized compounds were tested for their relative activity in β-galactosidase in a yeast estrogen screen (YES) assay. Compounds were tested for their relative estrogenic/anti-estrogenic activities in comparison to positive and negative controls, respectively. YES assay is a gene reporter assay where the DNA sequence of human ERα is integrated into the yeast genome completed with an expression plasmid carrying estrogen response elements (ERE) in the promoter controlling the expression of the reporter gene lacZ (encoding the enzyme β-galactosidase). In the presence of estrogenic compounds, β-galactosidase is synthesized and secreted into the medium, where it converts the chromogenic substrate chlorophenol red-β-D-galactopyranoside (CRPG) from a yellow to a red product, whose absorbance is measured. […] Therefore, we decided to test the novel compounds in an organ-specific in vitro model using the human Ishikawa endometrial adenocarcinoma cell line.
The yeast estrogen receptor assay was supplied by Dr. J.P. Sumpter (Brunel University, Uxbridge, UK) and was used to determine the relative transactivation activity of the human ERα as formerly described. Briefly, Saccharomyces cerevisiae stably transfected with a human ERα and an estrogen-responsive element fused to the reporter gene lacZ encoding for β-galactosidase were treated with the test substances for about 48 h. The β-galactosidase enzymatic activity was measured in a colorimetric assay using a microplate photometer by hydrolysis of the substrate chlorophenol red β-D-galactopyranoside (Roche Diagnostics, Mannheim, Germany), which leads to the formation of chlorophenol red. This can be measured as an increased absorption at 540 nm. All compounds were diluted in DMSO. […] All compounds were tested in technical quadruplicates and biological triplicates. Statistical analysis was performed by analysis of variance (ANOVA) and Tukey’s post-hoc test with the significance level of p < 0.05.
For `CC(=C(c1ccc(Cl)cc1)c1ccc(OCCCN(C)C)cc1)c1ccccc1` [Compound 5, E/Z-(3-{4-[1-(4-Chloro-phenyl)-2-phenyl-propenyl]-phenoxy}-propyl)-dimethyl-amine], the “Anti-Estrogenic Activity (relative β-galactosidase activity)” value was 1.34 ± 0.15. With `CC(=C(c1ccc(Cl)cc1)c1ccc(OCCN2CCCC2)cc1)c1ccccc1` [Compound 6, E/Z-1-(2-{4-[1-(4-Chloro-phenyl)-2-phenyl-propenyl]-phenoxy}-ethyl)-pyrrolidine] the “Anti-Estrogenic Activity (relative β-galactosidase activity)” value was 1.20 ± 0.19. With `CC(=C(c1ccc(Cl)cc1)c1ccc(OCCN2CCCCC2)cc1)c1ccccc1` [Compound 7, E/Z-1-(2-{4-[1-(4-Chloro-phenyl)-2-phenyl-propenyl]-phenoxy}-ethyl)-piperidine] the “Anti-Estrogenic Activity (relative β-galactosidase activity)” value was 1.35 ± 0.16. For `CC(=C(c1ccc(Cl)cc1)c1ccc(OCCN2CCOCC2)cc1)c1ccccc1` [Compound 8, E/Z-4-(2-{4-[1-(4-Chloro-phenyl)-2-phenyl-propenyl]-phenoxy}-ethyl)-morpholine], the “Anti-Estrogenic Activity (relative β-galactosidase activity)” value was 1.11 ± 0.26. `CC(=C(c1ccc(Cl)cc1)c1ccc(OCCN2CCCCCC2)cc1)c1ccccc1` [Compound 9, E/Z-1-(2-{4-[1-(4-Chloro-phenyl)-2-phenyl-propenyl]-phenoxy}-ethyl)-azepane] was tested, and the “Anti-Estrogenic Activity (relative β-galactosidase activity)” value was 1.99 ± 0.02. `COc1ccc(C(C)=C(c2ccc(Cl)cc2)c2ccc(OCCCN(C)C)cc2)cc1` [Compound 10, E/Z-(3-{4-[1-(4-Chloro-phenyl)-2-(4-methoxy-phenyl)-propenyl]-phenoxy}-propyl)-dimethyl-amine] was tested, and the “Anti-Estrogenic Activity (relative β-galactosidase activity)” value was 3.92 ± 0.58. In the case of `COc1ccc(C(C)=C(c2ccc(Cl)cc2)c2ccc(OCCN3CCCC3)cc2)cc1` [Compound 11, E/Z-1-(2-{4-[1-(4-Chloro-phenyl)-2-(4-methoxy-phenyl)-propenyl]-phenoxy}-ethyl)-pyrrolidine], the “Anti-Estrogenic Activity (relative β-galactosidase activity)” value is reported as 1.55 ± 0.12. `COc1ccc(C(C)=C(c2ccc(Cl)cc2)c2ccc(OCCN3CCCCC3)cc2)cc1` [Compound 12, E/Z-1-(2-{4-[1-(4-Chloro-phenyl)-2-(4-methoxy-phenyl)-propenyl]-phenoxy}-ethyl)-piperidine] was tested, and the “Anti-Estrogenic Activity (relative β-galactosidase activity)” value was 2.55 ± 0.41. With `COc1ccc(C(C)=C(c2ccc(Cl)cc2)c2ccc(OCCN3CCCCCC3)cc2)cc1` [Compound 14, E/Z-1-(2-{4-[1-(4-Chloro-phenyl)-2-(4-methoxy-phenyl)-propenyl]-phenoxy}-ethyl)-azepane] the “Anti-Estrogenic Activity (relative β-galactosidase activity)” value was 1.53 ± 0.09. `COc1cc(C(C)=C(c2ccc(Cl)cc2)c2ccc(OCCCN(C)C)cc2)ccc1F` [Compound 22, E/Z-(3-{4-[1-(4-Chlorophenyl)-2-(4-fluoro-3-methoxyphenyl)-propenyl]-phenoxy}-propyl)-dimethyl-amine] was tested, and the “Anti-Estrogenic Activity (relative β-galactosidase activity)” value was 0.97 ± 0.03. In the case of `COc1cc(C(C)=C(c2ccc(Cl)cc2)c2ccc(OCCN3CCCC3)cc2)ccc1F` [Compound 23, E/Z-1-(2-{4-[1-(4-Chlorophenyl)-2-(4-fluoro-3-methoxyphenyl)-propenyl]-phenoxy}-ethyl)-pyrrolidine], the “Anti-Estrogenic Activity (relative β-galactosidase activity)” value is reported as 1.06 ± 0.05. `COc1cc(C(C)=C(c2ccc(Cl)cc2)c2ccc(OCCN3CCCCC3)cc2)ccc1F` [Compound 24, E/Z-1-(2-{4-[1-(4-Chlorophenyl)-2-(4-fluoro-3-methoxyphenyl)-propenyl]-phenoxy}-ethyl)-piperidine] was tested, and the “Anti-Estrogenic Activity (relative β-galactosidase activity)” value was 1.19 ± 0.10. `COc1cc(C(C)=C(c2ccc(Cl)cc2)c2ccc(OCCN3CCOCC3)cc2)ccc1F` [Compound 25, E/Z-4-(2-{4-[1-(4-Chlorophenyl)-2-(4-fluoro-3-methoxyphenyl)-propenyl]-phenoxy}-ethyl)-morpholine] was tested, and the “Anti-Estrogenic Activity (relative β-galactosidase activity)” value was 1.18 ± 0.03. For `COc1cc(C(C)=C(c2ccc(Cl)cc2)c2ccc(OCCN3CCCCCC3)cc2)ccc1F` [Compound 26, E/Z-1-(2-{4-[1-(4-Chlorophenyl)-2-(4-fluoro-3-methoxyphenyl)-propenyl]-phenoxy}-ethyl)-azepane], the “Anti-Estrogenic Activity (relative β-galactosidase activity)” value was 1.05 ± 0.12. `COc1cc(C(C)=C(c2ccc(Cl)cc2)c2ccc(OCCN(C)C)cc2)ccc1F` [Compound 27, E/Z-(2-{4-[1-(4-Chlorophenyl)-2-(4-fluoro-3-methoxyphenyl)-propenyl]-phenoxy}-ethyl)-dimethyl-amine] was tested, and the “Anti-Estrogenic Activity (relative β-galactosidase activity)” value was 0.86 ± 0.04. With `CCN(CC)CCOc1ccc(C(=C(C)c2ccc(F)c(OC)c2)c2ccc(Cl)cc2)cc1` [Compound 28, E/Z-(2-{4-[1-(4-Chlorophenyl)-2-(4-fluoro-3-methoxyphenyl)-propenyl]-phenoxy}-ethyl)-diethyl-amine] the “Anti-Estrogenic Activity (relative β-galactosidase activity)” value was 0.86 ± 0.07.
